Data from ChEMBL document CHEMBL1124578, “A potent, tissue-selective, synthetic inhibitor of HMG-CoA reductase” (J Med Chem, 1989).

What was measured:
[1] = Ratio of the mean IC50 for sterol-synthesis inhibition of adrenal relative to hepatocytes in rat; assay type: functional, Hepatocyte
[2] = Ratio of the mean IC50 for sterol-synthesis inhibition of hepatocytes relative to hepatocytes in rat; assay type: functional, Hepatocyte
[3] = Ratio of the mean IC50 for sterol-synthesis inhibition of spleen relative to hepatocytes in rat; assay type: functional, Hepatocyte
[4] = Ratio of the mean IC50 for sterol-synthesis inhibition of testes relative to hepatocytes in rat; assay type: functional, Hepatocyte
[5] = system: HMG-CoA reductase (Rattus norvegicus); assay: In vitro inhibition of rat liver microsomal HMG-CoA reductase activity; No Activity

Compound | Ratio [1] | Ratio [2] | Ratio [3] | Ratio [4] | IC50 [5]
Cn1nnnc1C(/C=C/[C@@H]1C[C@@H](O)CC(=O)O1)=C(c1ccc(F)cc1)c1ccc(F)cc1 | 76 | 1 | 149 | 86 | 
Cn1nnnc1C(/C=C/[C@H]1C[C@H](O)CC(=O)O1)=C(c1ccc(F)cc1)c1ccc(F)cc1 |  |  |  |  | Not Active
CC[C@H](C)C(=O)O[C@H]1C[C@@H](C)C=C2C=C[C@H](C)[C@H](CC[C@@H]3C[C@@H](O)CC(=O)O3)[C@H]21 [LOVASTATIN] | 1 | 1 | 1.2 | 1.3 | 
